Assay results from the supplement of paper PMC10627819.

What was measured:
S. pneumoniae D39V [1] = experiment: Bliss interaction score (quartile over a dose matrix) (fitness difference); higher = more antagonism (negative = synergy)
Method in brief: (§1)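 Growth in each well was taken as OD595 at entry into stationary phase. Dividing by the plate's robust no-drug mean and capping at 1 gave fitness, and single-drug fitness was inferred from the combination data. The Bliss score, observed minus product-expected fitness, is summarised by quartiles over technical, biological and donor/recipient replicates.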

S. aureus DSM 20231 [2] = experiment: as above
Method in brief: as §1

S. aureus Newman [3] = experiment: as above
Method in brief: as §1

B. subtilis 168 [4] = experiment: as above
Method in brief: as §1

S. pneumoniae D39V [5] = experiment: fitness (endpoint OD595 vs no drug) (fraction); higher = more growth
Method in brief: (§2)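 Growth medium was TSB, LB Lennox or CY, and plates were kept at 37 °C. Inoculation was at OD595 0.01 in 384-well plates, at 30 µl per well or 55 µl for S. pneumoniae. OD595 was monitored every 30 min for 14 h and background-subtracted using the first reading. Fitness is the optical density on entering stationary phase divided by the robust mean of no-drug controls, with values capped at 1.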

S. aureus DSM 20231 [6] = experiment: as above
Method in brief: as §2

S. aureus Newman [7] = experiment: as above
Method in brief: as §2

B. subtilis 168 [8] = experiment: as above
Method in brief: as §2
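Throughout, for Bliss interaction score (quartile over a dose matrix): first quartile when negative (synergy) and third quartile when positive (antagonism).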

O=C(O[C@@H]1Cc2c(O)cc(O)cc2O[C@@H]1c1cc(O)c(O)c(O)c1)c1cc(O)c(O)c(O)c1 [EGCG] + COc1c(N2C[C@@H]3CCCN[C@@H]3C2)c(F)cc2c(=O)c(C(=O)O)cn(C3CC3)c12 [Moxifloxacin]
Conditions | Bliss interaction score
B. subtilis 168 [4] | 0.04
S. aureus DSM 20231 [2] | -0.0635
S. aureus Newman [3] | 0.103
S. pneumoniae D39V [1] | -0.0486

fitness
Conditions | first compound 6.25 µg/mL | first compound 12.5 µg/mL | first compound 25 µg/mL | first compound 50 µg/mL
B. subtilis 168 [8], partner 0.0312 µg/mL | 0.0635 | 0.316 | 0.136 | –
B. subtilis 168 [8], partner 0.0625 µg/mL | 0.0647 | 0.0486 | 0.0468 | –
B. subtilis 168 [8], partner 0.125 µg/mL | 0.0455 | 0.0337 | 0.032 | –
B. subtilis 168 [8], partner 2 µg/mL | 0.0355 | 0.0567 | 0.0285 | –
B. subtilis 168 [8], partner 4 µg/mL | 0.0375 | 0.028 | 0.0104 | –
B. subtilis 168 [8], partner 8 µg/mL | 0.0396 | 0.0267 | 0.0587 | –
S. aureus DSM 20231 [6], partner 0.0075 µg/mL | – | 0.686 | 0.605 | 0.629
S. aureus DSM 20231 [6], partner 0.015 µg/mL | – | 0.615 | 0.628 | 0.594
S. aureus DSM 20231 [6], partner 0.03 µg/mL | – | 0.53 | 0.554 | –
S. aureus Newman [7], partner 0.0075 µg/mL | – | 0.704 | 0.695 | –
S. aureus Newman [7], partner 0.015 µg/mL | – | – | – | 0.582
S. aureus Newman [7], partner 0.03 µg/mL | – | 0.3 | – | 0.0803
S. pneumoniae D39V [5], partner 0.005 µg/mL | – | 0.942 | 0.947 | 0.973
S. pneumoniae D39V [5], partner 0.01 µg/mL | – | 0.966 | 0.973 | 0.989
S. pneumoniae D39V [5], partner 0.02 µg/mL | – | 0.918 | 0.933 | 0.931
S. pneumoniae D39V [5], partner 0.0312 µg/mL | – | 0.265 | 0.152 | 0.499
S. pneumoniae D39V [5], partner 0.0625 µg/mL | – | 0.0738 | 0.0517 | 0.944
S. pneumoniae D39V [5], partner 0.125 µg/mL | – | 0.0322 | 0.0297 | 0.69

fitness, S. aureus DSM 20231 [6], one replicate
Conditions | first compound 12.5 µg/mL | first compound 25 µg/mL | first compound 50 µg/mL
partner 0.06 µg/mL | 0.636 | 0.584 | 0.607
partner 0.12 µg/mL | 0.537 | 0.495 | 0.506

O=C(O[C@@H]1Cc2c(O)cc(O)cc2O[C@@H]1c1cc(O)c(O)c(O)c1)c1cc(O)c(O)c(O)c1 [EGCG] + COc1ccc(C[C@H](N)C(=O)N[C@H]2[C@@H](O)[C@H](n3cnc4c(N(C)C)ncnc43)O[C@@H]2CO)cc1 [Puromycin]
Conditions | Bliss interaction score
B. subtilis 168 [4] | -0.0503
S. aureus DSM 20231 [2] | 0.09
S. aureus Newman [3] | 0.0755
S. pneumoniae D39V [1] | 0.0916

fitness
Conditions | first compound 6.25 µg/mL | first compound 12.5 µg/mL | first compound 25 µg/mL | first compound 50 µg/mL
B. subtilis 168 [8], partner 0.39 µg/mL | 0.91 | – | – | –
B. subtilis 168 [8], partner 0.78 µg/mL | 0.953 | – | – | –
B. subtilis 168 [8], partner 1.56 µg/mL | 0.885 | – | – | –
S. aureus DSM 20231 [6], partner 0.39 µg/mL | – | 0.908 | 0.842 | –
S. aureus DSM 20231 [6], partner 0.78 µg/mL | – | 0.888 | 0.812 | 0.845
S. aureus DSM 20231 [6], partner 1.56 µg/mL | – | 0.864 | 0.846 | 0.777
S. aureus Newman [7], partner 0.39 µg/mL | – | 0.802 | 0.779 | 0.657
S. aureus Newman [7], partner 0.78 µg/mL | – | 0.809 | 0.789 | –
S. aureus Newman [7], partner 1.56 µg/mL | – | 0.846 | 0.787 | –
S. pneumoniae D39V [5], partner 1 µg/mL | – | 0.949 | – | 0.965
S. pneumoniae D39V [5], partner 2 µg/mL | – | 0.895 | 0.917 | 0.91
S. pneumoniae D39V [5], partner 4 µg/mL | – | – | 0.384 | –

fitness, S. aureus DSM 20231 [6], one replicate
Conditions | first compound 12.5 µg/mL | first compound 25 µg/mL | first compound 50 µg/mL
partner 3.12 µg/mL | 0.846 | 0.945 | 0.676
partner 6.24 µg/mL | 0.745 | 0.527 | 0.172

O=C(O[C@@H]1Cc2c(O)cc(O)cc2O[C@@H]1c1cc(O)c(O)c(O)c1)c1cc(O)c(O)c(O)c1 [EGCG] + C[C@@H]1O[C@@H]1P(=O)(O)O [Fosfomycin]
Conditions | Bliss interaction score
B. subtilis 168 [4] | 0.144
S. aureus DSM 20231 [2] | -0.113
S. aureus Newman [3] | 0.101
S. pneumoniae D39V [1] | 0.0738

fitness
Conditions | first compound 6.25 µg/mL | first compound 12.5 µg/mL | first compound 25 µg/mL | first compound 50 µg/mL
B. subtilis 168 [8], partner 1.562 µg/mL | 0.682 | – | – | –
B. subtilis 168 [8], partner 3.124 µg/mL | 0.562 | – | 0.396 | –
B. subtilis 168 [8], partner 6.248 µg/mL | 0.448 | 0.439 | 0.25 | –
S. aureus DSM 20231 [6], partner 0.781 µg/mL | – | 0.583 | 0.541 | 0.402
S. aureus DSM 20231 [6], partner 1.562 µg/mL | – | 0.459 | 0.465 | –
S. aureus DSM 20231 [6], partner 3.124 µg/mL | – | 0.416 | 0.399 | 0.23
S. aureus Newman [7], partner 0.781 µg/mL | – | 0.494 | 0.573 | 0.548
S. aureus Newman [7], partner 1.562 µg/mL | – | 0.542 | 0.502 | 0.48
S. aureus Newman [7], partner 3.124 µg/mL | – | 0.251 | 0.219 | 0.185
S. pneumoniae D39V [5], partner 1.25 µg/mL | – | 0.965 | 0.913 | 0.969
S. pneumoniae D39V [5], partner 2.5 µg/mL | – | 0.948 | 0.936 | 0.856
S. pneumoniae D39V [5], partner 5 µg/mL | – | 0.774 | 0.796 | 0.854

O=C(O[C@@H]1Cc2c(O)cc(O)cc2O[C@@H]1c1cc(O)c(O)c(O)c1)c1cc(O)c(O)c(O)c1 [EGCG] + C[n+]1ccc(-c2cc[n+](C)cc2)cc1 [Paraquat]
Conditions | Bliss interaction score
B. subtilis 168 [4] | 0.0809
S. aureus DSM 20231 [2] | -0.0973
S. aureus Newman [3] | -0.052
S. pneumoniae D39V [1] | 0.0566

fitness
Conditions | first compound 6.25 µg/mL | first compound 12.5 µg/mL | first compound 25 µg/mL | first compound 50 µg/mL
B. subtilis 168 [8], partner 1.25 µg/mL | 0.912 | – | – | –
B. subtilis 168 [8], partner 2.5 µg/mL | 0.918 | – | – | –
B. subtilis 168 [8], partner 5 µg/mL | 0.836 | 0.691 | – | –
S. aureus DSM 20231 [6], partner 1.25 µg/mL | – | 0.792 | 0.774 | –
S. aureus DSM 20231 [6], partner 2.5 µg/mL | – | 0.767 | 0.827 | 0.609
S. aureus DSM 20231 [6], partner 5 µg/mL | – | 0.757 | 0.733 | 0.56
S. aureus Newman [7], partner 1.25 µg/mL | – | 0.709 | 0.579 | –
S. aureus Newman [7], partner 2.5 µg/mL | – | 0.691 | 0.812 | –
S. aureus Newman [7], partner 5 µg/mL | – | – | 0.796 | 0.787
S. pneumoniae D39V [5], partner 1.5 µg/mL | – | 0.953 | ≥ 1 | 0.952
S. pneumoniae D39V [5], partner 3 µg/mL | – | 0.971 | 0.999 | 0.839
S. pneumoniae D39V [5], partner 6 µg/mL | – | 0.91 | ≥ 1 | ≥ 1

O=C(O[C@@H]1Cc2c(O)cc(O)cc2O[C@@H]1c1cc(O)c(O)c(O)c1)c1cc(O)c(O)c(O)c1 [EGCG] + Cc1cc(NS(=O)(=O)c2ccc(N)cc2)no1 [Sulfamethoxazol]
Conditions | Bliss interaction score
B. subtilis 168 [4] | -0.0762
S. aureus DSM 20231 [2] | 0.071
S. aureus Newman [3] | 0.0456
S. pneumoniae D39V [1] | 0.0423

fitness
Conditions | partner 1 µg/mL | partner 2 µg/mL | partner 4 µg/mL
B. subtilis 168 [8], first compound 6.25 µg/mL | 0.881 | 0.815 | 0.901
B. subtilis 168 [8], first compound 25 µg/mL | – | 0.299 | 0.341
S. aureus DSM 20231 [6], first compound 12.5 µg/mL | 0.841 | 0.863 | 0.854
S. aureus DSM 20231 [6], first compound 25 µg/mL | 0.769 | 0.842 | 0.833
S. aureus DSM 20231 [6], first compound 50 µg/mL | 0.75 | 0.733 | 0.795
S. aureus Newman [7], first compound 12.5 µg/mL | 0.806 | 0.806 | 0.786
S. aureus Newman [7], first compound 25 µg/mL | 0.764 | 0.801 | 0.779
S. aureus Newman [7], first compound 50 µg/mL | 0.685 | 0.783 | 0.772
S. pneumoniae D39V [5], first compound 12.5 µg/mL | 0.934 | 0.905 | 0.965
S. pneumoniae D39V [5], first compound 25 µg/mL | 0.941 | 0.966 | 0.905
S. pneumoniae D39V [5], first compound 50 µg/mL | 0.951 | ≥ 1 | 0.725

fitness, one replicate
Conditions | first compound 6.25 µg/mL | first compound 12.5 µg/mL | first compound 25 µg/mL | first compound 50 µg/mL
B. subtilis 168 [8], partner 0.5 µg/mL | 0.831 | 0.551 | 0.271 | –
S. aureus Newman [7], partner 8 µg/mL | – | 0.712 | 0.703 | 0.675
